From the supplement of paper PMC10307832

Key:
Experiment in all cases: relative viability (nuclei count vs DMSO), 5 days (fraction); higher = more cells survive
NCI-H2009 = tested on: NCI-H2009
In short: (§1)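 Lung cancer cell lines, seeded in 1536-well plates, were treated the following day by pin tool with a single drug or with five library-drug doses (not always all listed) in √10 steps on top of a fixed anchor-drug dose. Cells were fixed and nuclei stained in one step after 5 days, and nuclei were counted. Relative viability is the nuclei count for treated wells divided by that for vehicle wells, reported as medians of duplicate plates.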

UMC-11 = tested on: UMC-11
In short: as §1

PC-14 = tested on: PC-14
In short: as §1

NCI-H1395 = tested on: NCI-H1395
In short: as §1

NCI-H596 = tested on: NCI-H596
In short: as §1

NCI-H1755 = tested on: NCI-H1755
In short: as §1

HCC-827 = tested on: HCC-827
In short: as §1

LCLC-97TM1 = tested on: LCLC-97TM1
In short: as §1

HCC-78 = tested on: HCC-78
In short: as §1

SK-LU-1 = tested on: SK-LU-1
In short: as §1

NCI-H727 = tested on: NCI-H727
In short: as §1

NCI-H2023 = tested on: NCI-H2023
In short: as §1

BEN = tested on: BEN
In short: as §1

EKVX = tested on: EKVX
In short: as §1

LK-2 = tested on: LK-2
In short: as §1

EMC-BAC-2 = tested on: EMC-BAC-2
In short: as §1

ABC-1 = tested on: ABC-1
In short: as §1

CAL-12T = tested on: CAL-12T
In short: as §1

NCI-H1437 = tested on: NCI-H1437
In short: as §1

LOU-NH91 = tested on: LOU-NH91
In short: as §1

EPLC-272H = tested on: EPLC-272H
In short: as §1

Nc1cccc2c1CN(C1CCC(=O)NC1=O)C2=O (stereo not given) [Lenalidomide] + C[C@]1(O)C[C@@H](c2nc(-c3ccc4ccc(-c5ccccc5)nc4c3)c3c(N)nccn32)C1 [Linsitinib] (partner 1 µM) gave a relative viability (NCI-H2009; first compound 0.253 µM) of 1.19, a relative viability (NCI-H2009; first compound 0.8 µM) of 1.16 and a relative viability (NCI-H2009; first compound 2.53 µM) of 1.24. For the same molecule, the relative viability (NCI-H2009; first compound 8 µM) was 1.25, the relative viability (UMC-11; first compound 0.253 µM) was 1.03 and the relative viability (UMC-11; first compound 0.8 µM) was 0.927. The relative viability (UMC-11; first compound 2.53 µM) was 1.08, the relative viability (UMC-11; first compound 8 µM) was 1.04 and the relative viability (PC-14; first compound 0.253 µM) was 0.925. The relative viability (PC-14; first compound 0.8 µM) was 0.988, the relative viability (PC-14; first compound 2.53 µM) was 0.978 and the relative viability (PC-14; first compound 8 µM) was 0.969. The relative viability (NCI-H1395; first compound 0.253 µM) was 0.968, the relative viability (NCI-H1395; first compound 2.53 µM) was 1.23 and the relative viability (NCI-H1395; first compound 8 µM) was 1.03. The relative viability (NCI-H596; first compound 0.253 µM) was 1.07, the relative viability (NCI-H596; first compound 0.8 µM) was 1.03 and the relative viability (NCI-H596; first compound 2.53 µM) was 1.23. It also gave a relative viability (NCI-H596; first compound 8 µM) of 0.969, a relative viability (NCI-H1755; first compound 0.253 µM) of 0.968 and a relative viability (NCI-H1755; first compound 0.8 µM) of 1.01. For the same molecule, the relative viability (NCI-H1755; first compound 2.53 µM) was 0.983, the relative viability (NCI-H1755; first compound 8 µM) was 0.897 and the relative viability (HCC-827; first compound 0.253 µM) was 0.939. It also gave a relative viability (HCC-827; first compound 0.8 µM) of 0.944, a relative viability (HCC-827; first compound 2.53 µM) of 0.995 and a relative viability (HCC-827; first compound 8 µM) of 1.07. The relative viability (LCLC-97TM1; first compound 0.8 µM) was 0.218, the relative viability (LCLC-97TM1; first compound 2.53 µM) was 0.157 and the relative viability (LCLC-97TM1; first compound 8 µM) was 0.137. For the same molecule, the relative viability (HCC-78; first compound 0.253 µM) was 0.55, the relative viability (HCC-78; first compound 0.8 µM) was 0.466 and the relative viability (HCC-78; first compound 2.53 µM) was 0.605. For the same molecule, the relative viability (HCC-78; first compound 8 µM) was 0.383, the relative viability (SK-LU-1; first compound 0.253 µM) was 1.1 and the relative viability (SK-LU-1; first compound 0.8 µM) was 1.01. The relative viability (SK-LU-1; first compound 2.53 µM) was 1.19, the relative viability (SK-LU-1; first compound 8 µM) was 1.16 and the relative viability (NCI-H727; first compound 0.253 µM) was 0.311. The relative viability (NCI-H727; first compound 2.53 µM) was 0.308, the relative viability (NCI-H727; first compound 8 µM) was 0.288 and the relative viability (NCI-H2023; first compound 0.253 µM) was 0.68. For the same molecule, the relative viability (NCI-H2023; first compound 0.8 µM) was 0.831, the relative viability (NCI-H2023; first compound 2.53 µM) was 0.681 and the relative viability (NCI-H2023; first compound 8 µM) was 0.695. For the same molecule, the relative viability (BEN; first compound 0.253 µM) was 1.03, the relative viability (BEN; first compound 0.8 µM) was 0.861 and the relative viability (BEN; first compound 2.53 µM) was 1.09. It also gave a relative viability (BEN; first compound 8 µM) of 0.781, a relative viability (EKVX; first compound 0.253 µM) of 0.861 and a relative viability (EKVX; first compound 0.8 µM) of 0.93. For the same molecule, the relative viability (EKVX; first compound 2.53 µM) was 1.19, the relative viability (EKVX; first compound 8 µM) was 0.792 and the relative viability (LK-2; first compound 0.253 µM) was 0.427. It also gave a relative viability (LK-2; first compound 0.8 µM) of 0.355, a relative viability (LK-2; first compound 2.53 µM) of 0.428 and a relative viability (LK-2; first compound 8 µM) of 0.451. It also gave a relative viability (EMC-BAC-2; first compound 0.253 µM) of 0.786, a relative viability (EMC-BAC-2; first compound 0.8 µM) of 0.833 and a relative viability (EMC-BAC-2; first compound 2.53 µM) of 0.823. It also gave a relative viability (EMC-BAC-2; first compound 8 µM) of 0.693, a relative viability (ABC-1; first compound 0.253 µM) of 0.589 and a relative viability (ABC-1; first compound 0.8 µM) of 0.732. For the same molecule, the relative viability (ABC-1; first compound 2.53 µM) was 0.71, the relative viability (ABC-1; first compound 8 µM) was 0.85 and the relative viability (CAL-12T; first compound 0.253 µM) was 0.821. For the same molecule, the relative viability (CAL-12T; first compound 0.8 µM) was 0.83, the relative viability (CAL-12T; first compound 2.53 µM) was 1.15 and the relative viability (CAL-12T; first compound 8 µM) was 0.787. The relative viability (NCI-H1437; first compound 0.253 µM) was 0.992, the relative viability (NCI-H1437; first compound 0.8 µM) was 1.15 and the relative viability (NCI-H1437; first compound 2.53 µM) was 1.21. It also gave a relative viability (NCI-H1437; first compound 8 µM) of 1.08, a relative viability (LOU-NH91; first compound 0.253 µM) of 0.912 and a relative viability (LOU-NH91; first compound 0.8 µM) of 0.977. For the same molecule, the relative viability (LOU-NH91; first compound 2.53 µM) was 0.922, the relative viability (LOU-NH91; first compound 8 µM) was 0.847 and the relative viability (EPLC-272H; first compound 0.253 µM) was 1.24. For the same molecule, the relative viability (EPLC-272H; first compound 2.53 µM) was 1.11 and the relative viability (EPLC-272H; first compound 8 µM) was 0.843.
